Patent publication US4874777A, “Leukotriene antagonists” (Eli Lilly and Company, priority 1987, dated 1989)

Tested on: LTD4 evoked ileal contractions
Assay: LTD4 antagonism in isolated guinea pig ileum (inhibition of LTD4 evoked ileal contractions)
Format: cell-based, guinea pig (male, Hartley)
Conditions: Cavia porcellus; for IC50: 50% inhibition of LTD4 responses, interpolated by linear regression from 2-4 concentrations; for inhibition at 0.1 µM: compound concentration 1 × 10^-7 M; for inhibition at 0.1 µM / inhibition at 0.01 µM / inhibition at 0.3 µM / inhibition at 0.03 µM / inhibition at 0.003 µM: read-out: Percent inhibition of LTD4 evoked ileal contractions; for inhibition at 0.01 µM: compound concentration 1 × 10^-8 M; for inhibition at 0.3 µM: compound concentration 3 × 10^-7 M; for inhibition at 0.03 µM: compound concentration 3 × 10^-8 M; for inhibition at 0.003 µM: compound concentration 3 × 10^-9 M
Procedure: Male, Hartley guinea pigs weighing 200-450 grams were killed by decapitation. A section of terminal ileum was removed, the lumen cleaned, and the tissue divided into 2.5 cm. segments. The ilea were mounted in 10 ml. tissue baths containing Krebs-bicarbonate solution of the following composition in mmoles/liter: KCl, 4.6; CaCl2 ·H2 O, 1.2; KH2 PO4, 1.2; MgSO4 ·7H2 O, 1.2; NaCl, 118.2; NaHCO3, 24.8; and dextrose, 10.0. The bath fluid was maintained at 37° C. and aerated with 95 percent oxygen and 5 percent CO2. In addition, the buffer contained 1×10^-6 M atropine to reduce ileal spontaneous activity. Isometric measurements were made with a Grass FTO3C force-displacement transducer and recorded on a Gras polygraph as change in grams of force. A passive force of 0.5 g. was applied to the tissues. After an appropriate equilibration period, single submaximal control responses to pure LTD4 were obtained. Following a five minute exposure of the ileum to an experimental drug, the control concentration of LTD4 was added to the tissue bath. The response of the ileum to LTD4 in the presence of the drug was compared to the response in the absence of the drug. Various degrees of LTD4 antagonism were obtained using 2-4 different concentrations of an experimental compound on a single ileum.

SMILES	IC50 [µM]	inhibition at 0.1 µM [%]	inhibition at 0.01 µM [%]	inhibition at 0.3 µM [%]	inhibition at 0.03 µM [%]	inhibition at 0.003 µM [%]
CCCc1c(COc2ccc(C(=O)CCCCC(=O)O)cc2)ccc(C(C)=O)c1O [Example 5, 4-[(4-Acetyl-3-hydroxy-2-propylphenyl)methoxy]-ε-oxobenzenehexanoic acid]	0.0158	86	40		63	
CCc1c(COc2ccc(C(=O)CC(C)(C)Cc3nnn[nH]3)cc2)ccc(C(C)=O)c1O [Example 16, 1-{4-[(4-Acetyl-3-hydroxy-2-ethylphenyl)methoxy]phenyl}-3,3-dimethyl-4-(1H-tetrazol-5-yl)-1-butanone]	0.00479	95	63			41
CCCc1c(COc2ccc(C(=O)CCC(=O)O)cc2)ccc(C(C)=O)c1O [Example 1, 4-[(4-Acetyl-3-hydroxy-2-propylphenyl)methoxy]-γ-oxobenzenebutanoic acid]	0.0331			97	48	
CCCc1c(COc2ccc(C(=O)CC(C)(C)CC(=O)O)cc2)ccc(C(C)=O)c1O [Example 6, 4-[(4-Acetyl-3-hydroxy-2-propylphenyl)methoxy]-β,β-dimethyl-δ-oxobenzenepentanoic acid]	0.0186	78	41			16
CCCc1c(COc2ccc(C(=O)CC3(CC(=O)O)CCCC3)cc2)ccc(C(C)=O)c1O [Example 24, 1-(2-{4-[(4-Acetyl-3-hydroxy-2-propylphenyl)methoxy]phenyl}-2-oxoethyl)cyclopentaneacetic acid]	0.0135	85	35		74	
CCCc1c(COc2ccc3c(c2)C(=O)C(CC(=O)O)CC3)ccc(C(C)=O)c1O (stereo not shown) [Example 29, 7-[(4-Acetyl-3-hydroxy-2-propylphenyl)methoxy]-1,2,3,4-tetrahydro-1-oxo-2-naphthaleneacetic acid]	0.0759					
CCCc1c(COc2ccc3c(c2)CCC(CC(=O)O)C3=O)ccc(C(C)=O)c1O (stereo not shown) [Example 28, 6-[(4-Acetyl-3-hydroxy-2-propylphenyl)methoxy]-1,2,3,4-tetrahydro-1-oxo-2-naphthaleneacetic acid]	0.0102					
CCCc1c(COc2ccc(C(=O)CCCC(=O)O)cc2)ccc(C(C)=O)c1O [Example 7, 4-[(4-Acetyl-3-hydroxy-2-propylphenyl)methoxy]-δ-oxobenzenepentanoicacid]	0.0372	68	17			
CCc1c(COc2ccc(C(=O)CC(C)(C)CC(=O)O)cc2)ccc(C(C)=O)c1O [Example 23, 4-[(4-Acetyl-2-ethyl-3-hydroxyphenyl)methoxy]-β,β-dimethyl-δ-oxobenzenepentanoic acid]	0.0214	88	25		66	

More lines, main results first:

IC50 [µM]	SMILES	inhibition at 0.1 µM [%]	inhibition at 0.01 µM [%]	inhibition at 0.3 µM [%]	inhibition at 0.03 µM [%]	inhibition at 0.003 µM [%]
0.00479	CCCc1c(COc2ccc(C(=O)CCCc3nnn[nH]3)cc2)ccc(C(C)=O)c1O [Example 10, 1-{4-[(4-Acetyl-3-hydroxy-2-propylphenyl)methoxy]-phenyl}-4-(1H-tetrazol-5-yl)-1-butanone]	95	57	94	76	46
0.0219	CCCc1c(COc2ccc(C(=O)Cc3nnn[nH]3)cc2)ccc(C(C)=O)c1O [Example 8, 1-{4-[(4-acetyl-3-hydroxy-2-propylphenyl)methoxy]phenyl}-2-(1H-tetrazol-5-yl)ethanone]		40		54	
0.0245	CCCc1c(COc2ccc(C(=O)CCCCc3nnn[nH]3)cc2)ccc(C(C)=O)c1O [Example 11, 1-{4-[(4-Acetyl-3-hydroxy-2-propylphenyl)methoxy]phenyl}-5-(1H-tetrazol-5-yl)-1-pentanone]		43		51	
0.0324	CCCc1c(COc2ccc(C(=O)CCCCCc3nnn[nH]3)cc2)ccc(C(C)=O)c1O [Example 19, 1-{4-[(4-Acetyl-3-hydroxy-2-propylphenyl)methoxy]phenyl}-6-(1H-tetrazol-5-yl)-1-hexanone]	80			47	
0.0245	CCCc1c(COc2ccc(C(=O)CCCc3nnn[nH]3)c(O)c2)ccc(C(C)=O)c1O [Example 13, 1-{4-[(4-Acetyl-3-hydroxy-2-propylphenyl)methoxy]-2-hydroxyphenyl}-4-(1H-tetrazol-5-yl)-1-butanone]		28	82		
0.0513	CCCc1c(COc2ccc(C(=O)C(C)(C)Cc3nnn[nH]3)cc2)ccc(C(C)=O)c1O [Example 12, 1-{4-[(4-Acetyl-3-hydroxy-2-propylphenyl)methoxy]phenyl}-2,2-dimethyl-3-(1H-tetrazol-5-yl)-1-propanone]			60	41	
0.0204	CCCc1c(COc2ccc(C(=O)C(C)Cc3nnn[nH]3)cc2)ccc(C(C)=O)c1O (stereo not shown) [Example 14, 1-{4-[(4-Acetyl-3-hydroxy-2-propylphenyl)methoxy]phenyl}-2-methyl-3-(1H-tetrazol-5-yl)-1-propanone]		35		58	
0.0182	CCCc1c(COc2cccc(C(=O)CCCc3nnn[nH]3)c2)ccc(C(C)=O)c1O [Example 18, 1-{3-[(4-Acetyl-3-hydroxy-2-propylphenyl)methoxy]phenyl}-4-(1H-tetrazol-5-yl)-1-butanone]	84	34		65	
0.00324	CCCc1c(COc2ccc(C(=O)CC(C)(C)Cc3nnn[nH]3)cc2)ccc(C(C)=O)c1O [Example 15, 1-{4-[(4-Acetyl-3-hydroxy-2-propylphenyl)methoxy]phenyl}-3,3-dimethyl-4-(1H-tetrazol-5-yl)-1-butanone]				91	50
0.0263	CCCc1c(COc2ccc(C(=O)CCc3nnn[nH]3)cc2)ccc(C(C)=O)c1O [Example 9, 1-{4-[(4-Acetyl-3-hydroxy-2-propylphenyl)methoxy]phenyl}-3-(1H-tetrazol-5-yl)-1-propanone]	85	25	91	54	
